The values below come from PubChem BioAssay (NCI).

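Dose response: 5 concentrations. Exposure: 48 h. Format: 96-well plates. Endpoint: linear interpolation; highest concentration if not reached. TGI marks complete inhibition of growth.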 Bounds are passed on as bounds.

Common to all, as to test: DTP human tumour cell line panel, 48 h
For test [1], the system named is SNB-78 CNS.
Test [2] deals with HOP-18 NSCLC.
For test [3], the system named is UO-31 renal.
The test system of test [4] is MOLT-4 leukemia.
Test [5] deals with NCI-H522 lung.
Test [6] concerns HOP-62 NSCLC.
The subject of test [7] is SK-MEL-28 melanoma.
The test system of test [8] is HCT-116 colon.
Test [9] has as its system OVCAR-8 ovarian.
Test [10] concerns HL-60(TB) leukemia.
Test [11] relates to NCI-H23 lung.
For test [12], the system named is M19-MEL melanoma.
In test [13] the test system is LXFL 529 NSCLC.
Test [14] has as its system KM20L2 colon.
For test [15], the system named is SW-620 colon.

A word on the TGI: it is the concentration at which net growth stops. Turning to `CC1OC(OC2C(Oc3cc(O)c4c(=O)cc(-c5ccc(O)cc5)oc4c3)OC(CO)C(O)C2O)C(O)C(O)C1O` (configuration not stated), the TGI in test [1], in test [2], in test [3], in test [4], in test [5] and in test [6] was over 100 µM each time. Moreover, the TGI in test [7], in [8], in [9], in test [10], in [11] and in test [12] was over 100 µM in each case. In addition, the concentration for total growth inhibition (TGI) in test [13] and in [14] was over 100 µM in each case.
Turning to `O=C(c1ccc(Cl)cc1)N(C(=S)N1CCN(c2ccccc2)CC1)c1ccccc1`, the TGI in [1], in test [2], in [3], in test [4], in test [5] and in test [6] was over 100 µM throughout. Besides, the TGI in test [7], in test [15], in [8], in [9], in test [10] and in [11] was over 100 µM in each case. The TGI in test [12], in test [13] and in [14] was over 100 µM in each case.
For the compound `Cc1ccc(S(=O)(=O)OCC23CCC(C4CC42)C2CC23)cc1` (configuration not stated), the TGI in [2], in test [3], in test [4], in test [6], in [7] and in test [15] was over 100 µM in each case. The TGI is over 100 µM in test [8]; over 100 µM in test [9]; 37.8 µM in test [10]; over 100 µM in test [11]; over 100 µM in test [12]; over 100 µM in [13]. The TGI in test [14] was over 100 µM.
With `CCCN(CCC)C(=O)Cc1c2n(c3ccccc13)Cc1ccccc1-2`, the TGI in test [1], in test [2], in test [3], in test [4], in test [5] and in [6] was over 100 µM throughout. Also, the TGI in test [7], in [15], in test [8], in test [9], in test [10] and in test [11] was over 100 µM throughout. The TGI in test [12], in [13] and in test [14] was over 100 µM each time.
